{"source": "patent US20250114355A1", "about": "“TREATING LIVER DISEASE” (Mayo Foundation for Medical Education and Research, priority 2021, published 2025)", "key": {"[1]": {"tested_on": "HHSEC", "assay": "Colorimetric (XTT) cell viability assay in HHSEC", "assay_type": "cell-based, human", "conditions": "for toxicity to HHSEC (ranking): XTT viability, FIG. 33B", "experimental": "Cell viability assay was performed with a XTT Viability Kit (Cell Signaling Technology, 9095) according to the manufacturer's instructions. HHSEC were seeded in three black-walled 96-well plates (Corning, 3603) with cell density≥12,000 cells per well.\nThe cells were incubated for 24 hours at 37° C., 5% CO2 in endothelial growth media (Cell Application Inc, 211-500). After 24 hours, old media was removed and 100 μL of fresh media was added to each well. Drugs were dissolved in DMSO; a 1.1 mM stock solution was made by diluting drug in DPBS (11% DMSO, v/v). The 1.1 mM stock was serially diluted with 3-fold dilutions. DMSO volumes were balanced to 11% DMSO (v/v). A multichannel pipette was used to add 10 μL of drug or control stocks simultaneously (i.e., one column per drug per plate). The final maximum concentration of drug was 100 μM. Plates were incubated for 21 hours at 37° C., 5% CO2. After incubation, 50 μL of XTT solution were added to each well and incubated for three hours to maximize differences in signal. Absorbance was measured at 462 and 620 nm with a spectrophotometer (Molecular Devices, Spectramax Plus 384). Background absorbance at 620 nm was subtracted from maximum peak at 462 nm."}, "[2]": {"tested_on": "CXCL1 and CCL2 mRNA expression", "assay": "Murine LPS model of mild liver inflammation, qPCR of CXCL1 and CCL2 mRNA", "assay_type": "in vivo", "conditions": "mice, drug given one hour before LPS; for CCL2 mRNA expression versus LPS control: several doses", "experimental": "BRD4 inhibitors were introduced to murine models of mild liver inflammation induced by LPS. The BRD4 inhibitors acted as prophylactic agents to prevent the increased expression of CXCL1 and CCL2. […] RNA extraction was performed with RNeasy kit (Qiagen 74104) from cells and mouse tissue according to the manufacturer's instructions. RNA Quantification was performed with spectrophotometry (NanoDrop, Thermo Scientific). 500 ng of mRNA was used for cDNA synthesis with dNTP and oligo primer using SuperScript™ III (Invitrogen 18080-093) for reverse transcription per the manufacturer's protocol. Real-Time PCR was performed from cDNA using IQ SYBR Green Mix (Biorad 1725121) on the 7500 Real-Time PCR system (Applied Biosystems), according to the manufacturer's instructions. Amplification of GAPDH and B-actin was performed for respective samples as internal controls. Each experiment was done in duplicates."}, "[3]": {"biological_target": "BRD4 BD1 (Homo sapiens, UniProt O60885)", "assay": "BRD4 BD1 affinity (IC50)", "assay_type": "binding", "conditions": "ratio of BD2 and BD1 IC50"}, "[4]": {"tested_on": "CXCL chemokine expression in LSECs", "assay": "CXCL chemokine expression by qPCR in LSECs with or without TNFα stimulation", "assay_type": "cell-based, human", "conditions": "LSECs pretreated with inhibitor", "experimental": "LSECs were thawed and cultured according to standard cell culture conditions and according to manufacture instruction (ScienCell). Briefly, LSECs are plated at low confluency and cultured in Endothelial cell medium (Cell 211-500). Fresh medium changed every other day and cells are split when close to confluency. For TNFα stimulation experiments, low passage cells were plated at 70% confluency and cultured overnight. Serum starvation was performed by changing cells to low-serum medium (0.5% FBS in basal endothelial medium (Lonza CC-3121)) for 2 hours. Human TNFα at concentration 10 ng/mL was added to low-serum medium and incubated with cells for 90 minutes before cells were collected and assayed for downstream analysis. […] Inhibitors were added at concentrations indicated to low-serum medium, and cells were incubated in inhibitor containing medium for 2 hours. After inhibitor treatment, medium change was performed with TNFα (Peprotech 300-01A) at 10 ng/ml or control low-serum medium for 90 minutes incubation. LSECs were then collected for analysis.\nmRNA levels were quantified by real-time reverse transcription PCR. RNA extraction was performed with RNeasy kit (Qiagen 74104) from cells and mouse tissue according to the manufacturer's instructions. RNA Quantification was performed with spectrophotometry (NanoDrop, Thermo Scientific). […]"}, "[5]": {"tested_on": "alcohol/LPS-induced liver inflammation", "assay": "Multiple alcohol binge with LPS mouse model", "assay_type": "in vivo, mice", "conditions": "UMN627 22 mg/kg IP", "experimental": "mRNA levels were quantified by real-time reverse transcription PCR. RNA extraction was performed with RNeasy kit (Qiagen 74104) from cells and mouse tissue according to the manufacturer's instructions. RNA Quantification was performed with spectrophotometry (NanoDrop, Thermo Scientific). 500 ng of mRNA was used for cDNA synthesis with dNTP and oligo primer using SuperScript™ III (Invitrogen 18080-093) for reverse transcription per the manufacturer's protocol. Real-Time PCR was performed from cDNA using IQ SYBR Green Mix (Biorad 1725121) on the 7500 Real-Time PCR system (Applied Biosystems), according to the manufacturer's instructions. Amplification of GAPDH and B-actin was performed for respective samples as internal controls. Each experiment was done in duplicates.\nRight lobes of all mouse livers were fixed in 10% formalin and embedded in paraffin and cut into 5 μm sections. Slides were deparaffinized and underwent antigen retrieval (IHC-Tek IW-1000). Slides were treated with hydrogen peroxide for 10 minutes before blocking in 5% bovine serum albumin in phosphate-buffered saline (PBS) for 1 hour at room temperature. Samples were then incubated overnight at 4° C. with rabbit anti-MPO antibody (Abcam ab9535) at 1:25. Slides were then blocked with Avidin and Biotin (Vector SP-2001) for 15 minutes each before treatment with biotinylated secondary antibody horse anti-Rabbit (Vector BA-1100) at 1:200 for 1 hour at room temperature. Slides were then treated with\nABC reagent (Vector PK-7100) for 30 minutes before treatment with DAB reagent (Vector SK-4100) for 5 minutes. Counterstain was performed with hematoxylin stain and dehydrated in ethanol and xylene. Images were acquired using a Zeiss LSM 780 confocal microscope at 10× magnification, 5 images per slide (Carl Zeiss MicroImaging, Jena, Germany).\nLiver sections from the left lobe of all mouse livers were embedded in OCT (Sakura 4583) and flash frozen. Frozen tissue was sectioned into 10 μm slices, fixed in 10% formalin and stained with BODIPY 493/503 (Invitrogen D3922) or Oil-red (Sigma 00625) and counterstained with 4′,6-diamidino-2-phenylindole (DAPI) (Sigma D9542) or hematoxylin, respectively. Representative images were obtained with microscopy in one session under same settings (Carl Zeiss MicroImaging, Jena, Germany), 3 images per slide. The proportion of tissue stained with BODIPY, or Oil-red content was quantified with ImageJ macro commands for standardization. For BODIPY staining, FITC channel intensity was measured across the whole image, and average intensities of images were normalized to the average of all control samples. For Oil Red staining, red staining was quantified above a pre-selected threshold, and average intensities of images were normalized to the average of all control samples. […]"}, "[6]": {"conditions": "among treatment groups, 22 mg/kg"}}, "note": "“Also recorded” adds a separate entry of the source.", "data": [{"compound": "Cc1cc(C)cc(Oc2cccc(-c3c(C)nnn3C3CCN(CCN(C)C)CC3)n2)c1", "note": "[AC6027]", "values": [{"measurement": "toxicity to HHSEC (ranking)", "setting": "[1]", "value": "least toxic"}]}, {"compound": "Cc1cc(C)cc(Oc2cccc(-c3c(C)nnn3C3CCNCC3)n2)c1", "note": "[AC4118]", "values": [{"measurement": "toxicity to HHSEC (ranking)", "setting": "[1]", "value": "least toxic"}, {"measurement": "IC50 for chemokine expression (chemokine not specified)", "setting": "[2]", "value": "< 5", "unit": "mg/kg"}, {"measurement": "CCL2 mRNA expression versus LPS control", "setting": "[2]", "value": "significantly reduced CCL2 expression at higher concentrations compared to UMN627"}]}, {"compound": "CCc1cc(C)cc(Oc2nccc(-c3c(-c4ccc(C(F)(F)F)cc4)ncn3[C@H]3CCN(CCN(C)C)C3)n2)c1", "note": "[9-209]", "values": [{"measurement": "toxicity to HHSEC (ranking)", "setting": "[1]", "value": "least toxic"}]}, {"compound": "Cc1cc(C)cc(Nc2nccc(-c3c(-c4ccc(C(F)(F)F)cc4)ncn3C3CCN(CCCN(C)CCNC(=O)CN4CCC(n5nnc(C)c5-c5cccc(Oc6cc(C)cc(C)c6)n5)CC4)CC3)n2)c1", "note": "[9-169]", "values": [{"measurement": "EC50", "setting": "[1]; Homo sapiens, read-out: EC50, concentration that causes 50% toxicity to HHSEC, XTT, 21 + 3 hours incubation", "value": "< 4", "unit": "µM"}]}, {"compound": "CCc1cc(C)cc(Oc2nccc(-c3c(-c4ccc(C(F)(F)F)cc4)ncn3C3CCN(CCN(C)C)CC3)n2)c1", "note": "[9-73]", "values": [{"measurement": "toxicity to HHSEC (ranking)", "setting": "[1]", "value": "least toxic"}]}, {"compound": "Cc1cc(C)cc(Nc2nccc(-c3c(-c4ccc(C(F)(F)F)cc4)ncn3C3CCN(CCN)CC3)n2)c1", "note": "[UMN627]", "values": [{"measurement": "affinity for BRD4 BD1 over BRD4 BD2", "setting": "[3]", "value": "over 20 fold"}, {"measurement": "CXCL chemokine expression in LSECs", "setting": "[4]", "value": "showed efficacy in CXCL suppression"}, {"measurement": "liver neutrophil infiltration (MPO IHC)", "setting": "[5]; alcohol binges/LPS mice", "value": "Attenuated"}, {"measurement": "liver CXCL chemokine (and Ly6g) expression by qPCR", "setting": "[5]; alcohol binges/LPS mice, 22 mg/kg", "value": "attenuated"}, {"measurement": "serum ALT levels", "setting": "[5]; [6]", "value": "no significant changes; also recorded: did not show statistical difference"}, {"measurement": "steatosis (BODIPY 493/503 staining)", "setting": "[5]; [6]", "value": "no significant changes; also recorded: not significantly correlated"}, {"measurement": "IC50 for CCL2 mRNA expression", "setting": "[2]", "value": 8.8, "unit": "mg/kg"}, {"measurement": "IC50 for CXCL1 mRNA expression", "setting": "[2]", "value": 10.9, "unit": "mg/kg"}, {"measurement": "CCL2 mRNA expression versus LPS control", "setting": "[2]", "value": "No significant differences were found"}]}, {"compound": "Cc1nnn(C2CCN(CCN(C)C)CC2)c1-c1cccc(Oc2cc(Br)ccc2Br)n1", "note": "[AC6026]", "values": [{"measurement": "toxicity to HHSEC (ranking)", "setting": "[1]", "value": "least toxic"}]}]}
